{
  "source": "paper PMC4624507",
  "about": "(2015)",
  "assay_in_all_cases": "ITC",
  "details_in_all_cases": "135 mM KCl, 15 mM NaCl, 10 mM MgCl2; 50 mM TrisCl pH 8.0, 37 °C",
  "key": {"[1]": {"system": "metE aptamer A153G (RNA, riboswitch) GGCAUUUUCUCUUAUCGAGAGUUGGGCGAGGGAUUGGCCUUUUGACCCCAACAGCAACCGACCGUAAUACCAUUGUGAAAUGGGGCGCACUGCUUUUCGCGCCGAGACUGAUGUCUCAUAAGGCGCGGUGCUAAUUCCAUCAGAUUGUGUCUGAGAGAUGAGAGAGGCAGUG"}, "[2]": {"system": "metE aptamer A89G/Δ153 (RNA, riboswitch) GGCAUUUUCUCUUAUCGAGAGUUGGGCGAGGGAUUGGCCUUUUGACCCCAACAGCAACCGGCCGUAAUACCAUUGUGAAAUGGGGCGCACUGCUUUUCGCGCCGAGACUGAUGUCUCAUAAGGCCGGUGCUAAUUCCAUCAGAUUGUGUCUGAGAGAUGAGAGAGGCAGUG"}, "[3]": {"system": "metE aptamer A153C (RNA, riboswitch) GGCAUUUUCUCUUAUCGAGAGUUGGGCGAGGGAUUGGCCUUUUGACCCCAACAGCAACCGACCGUAAUACCAUUGUGAAAUGGGGCGCACUGCUUUUCGCGCCGAGACUGAUGUCUCAUAAGGCCCGGUGCUAAUUCCAUCAGAUUGUGUCUGAGAGAUGAGAGAGGCAGUG"}, "[4]": {"system": "B. subtilis metE wild type aptamer domain (RNA, riboswitch) GGCAUUUUCUCUUAUCGAGAGUUGGGCGAGGGAUUGGCCUUUUGACCCCAACAGCAACCGACCGUAAUACCAUUGUGAAAUGGGGCGCACUGCUUUUCGCGCCGAGACUGAUGUCUCAUAAGGCACGGUGCUAAUUCCAUCAGAUUGUGUCUGAGAGAUGAGAGAGGCAGUG"}, "[5]": {"system": "metE aptamer U157A (RNA, riboswitch) GGCAUUUUCUCUUAUCGAGAGUUGGGCGAGGGAUUGGCCUUUUGACCCCAACAGCAACCGACCGUAAUACCAUUGUGAAAUGGGGCGCACUGCUUUUCGCGCCGAGACUGAUGUCUCAUAAGGCACGGAGCUAAUUCCAUCAGAUUGUGUCUGAGAGAUGAGAGAGGCAGUG"}},
  "data": [
    {"compound": "C[S+](CC[C@H](N)C(=O)O)C[C@H]1O[C@@H](n2cnc3c(N)ncnc32)[C@H](O)[C@@H]1O", "note": "(some centres unmarked)", "values": [
      {"measurement": "KD,obs", "setting": "[1]", "value": "0.15 ± 0.02", "unit": "µM"},
      {"measurement": "KD,obs", "setting": "[2]", "value": "16 ± 1", "unit": "µM"},
      {"measurement": "KD,obs", "setting": "[3]", "value": "0.15 ± 0.02", "unit": "µM"},
      {"measurement": "KD,obs", "setting": "[4]", "value": "0.079 ± 0.008", "unit": "µM"},
      {"measurement": "KD,obs", "setting": "[5]", "value": "24 ± 7", "unit": "µM"}
    ]}
  ]
}
